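Grown in 96-well plates, cells were treated for 48 hours with each compound at five concentrations. Insufficient inhibition: endpoint recorded as highest concentration tested. TGI denotes the concentration required for complete inhibition of growth.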
Legend:
Test in all cases: NCI tumour cell line growth inhibition, 48 h
SF-539 CNS = test system: SF-539 CNS
HT29 colon = test system: HT29 colon
SN12K1 renal = test system: SN12K1 renal
NCI-H23 lung = test system: NCI-H23 lung
NCI-H226 lung = test system: NCI-H226 lung
RPMI-8226 leukemia = test system: RPMI-8226 leukemia
EKVX NSCLC = test system: EKVX NSCLC
DLD-1 colon = test system: DLD-1 colon
SK-MEL-5 melanoma = test system: SK-MEL-5 melanoma
NCI/ADR-RES ovarian = test system: NCI/ADR-RES ovarian
SW-620 colon = test system: SW-620 colon
XF 498 CNS = test system: XF 498 CNS
RXF 393 renal = test system: RXF 393 renal
HOP-18 NSCLC = test system: HOP-18 NSCLC
UO-31 renal = test system: UO-31 renal
KM20L2 colon = test system: KM20L2 colon
A549 NSCLC = test system: A549 NSCLC
P388 leukemia = test system: P388 leukemia
SNB-75 CNS = test system: SNB-75 CNS
OVCAR-3 ovarian = test system: OVCAR-3 ovarian
MOLT-4 leukemia = test system: MOLT-4 leukemia
SF-268 CNS = test system: SF-268 CNS
SK-MEL-2 melanoma = test system: SK-MEL-2 melanoma
P388/ADR leukemia = test system: P388/ADR leukemia
HOP-62 NSCLC = test system: HOP-62 NSCLC
NCI-H460 lung = test system: NCI-H460 lung
CAKI-1 renal = test system: CAKI-1 renal
K-562 leukemia = test system: K-562 leukemia
LOX IMVI melanoma = test system: LOX IMVI melanoma
KM12 colon = test system: KM12 colon
OVCAR-8 ovarian = test system: OVCAR-8 ovarian
SNB-19 CNS = test system: SNB-19 CNS
NCI-H522 lung = test system: NCI-H522 lung
COLO 205 colon = test system: COLO 205 colon
A498 renal = test system: A498 renal
DMS 273 small cell lung = test system: DMS 273 small cell lung
HCC-2998 colon = test system: HCC-2998 colon
SK-OV-3 ovarian = test system: SK-OV-3 ovarian
HCT-116 colon = test system: HCT-116 colon
MALME-3M melanoma = test system: MALME-3M melanoma
UACC-257 melanoma = test system: UACC-257 melanoma
M19-MEL melanoma = test system: M19-MEL melanoma
OVCAR-5 ovarian = test system: OVCAR-5 ovarian
SK-MEL-28 melanoma = test system: SK-MEL-28 melanoma
UACC-62 melanoma = test system: UACC-62 melanoma
SN12C renal = test system: SN12C renal
HOP-92 NSCLC = test system: HOP-92 NSCLC
U251 CNS = test system: U251 CNS
HCT-15 colon = test system: HCT-15 colon
OVCAR-4 ovarian = test system: OVCAR-4 ovarian
SNB-78 CNS = test system: SNB-78 CNS
MCF7 breast = test system: MCF7 breast
IGROV1 ovarian = test system: IGROV1 ovarian
HL-60(TB) leukemia = test system: HL-60(TB) leukemia
SF-295 CNS = test system: SF-295 CNS
CCRF-CEM leukemia = test system: CCRF-CEM leukemia
TK-10 renal = test system: TK-10 renal
DMS 114 small cell lung = test system: DMS 114 small cell lung
MDA-N = test system: MDA-N
MDA-MB-435 = test system: MDA-MB-435
PC-3 prostate = test system: PC-3 prostate
DU-145 prostate = test system: DU-145 prostate
T-47D breast = test system: T-47D breast
M14 melanoma = test system: M14 melanoma
ACHN renal = test system: ACHN renal
MDA-MB-231 breast = test system: MDA-MB-231 breast
HS 578T breast = test system: HS 578T breast
BT-549 breast = test system: BT-549 breast
SR leukemia = test system: SR leukemia
786-0 renal = test system: 786-0 renal

SMILES: S=C(NCCCCCCNC(=S)Nc1c2ccccc2nc2ccccc12)Nc1c2ccccc2nc2ccccc12
- TGI (SF-539 CNS): 99.9 µM
- TGI (HT29 colon): > 100 µM
- TGI (SN12K1 renal): > 25.1 µM
- TGI (NCI-H23 lung): > 100 µM
- TGI (NCI-H226 lung): > 30.1 µM
- TGI (RPMI-8226 leukemia): > 100 µM
- TGI (EKVX NSCLC): > 100 µM
- TGI (DLD-1 colon): > 100 µM
- TGI (SK-MEL-5 melanoma): > 100 µM
- TGI (NCI/ADR-RES ovarian): > 100 µM
- TGI (SW-620 colon): > 100 µM
- TGI (XF 498 CNS): > 100 µM
- TGI (RXF 393 renal): > 100 µM
- TGI (HOP-18 NSCLC): > 100 µM
- TGI (UO-31 renal): > 100 µM
- TGI (KM20L2 colon): > 100 µM
- TGI (A549 NSCLC): > 100 µM
- TGI (P388 leukemia): > 100 µM
- TGI (SNB-75 CNS): > 100 µM
- TGI (OVCAR-3 ovarian): > 100 µM
- TGI (MOLT-4 leukemia): > 94.3 µM
- TGI (SF-268 CNS): > 100 µM
- TGI (SK-MEL-2 melanoma): > 100 µM
- TGI (P388/ADR leukemia): > 100 µM
- TGI (HOP-62 NSCLC): > 100 µM
- TGI (NCI-H460 lung): > 100 µM
- TGI (CAKI-1 renal): > 100 µM
- TGI (K-562 leukemia): > 100 µM
- TGI (LOX IMVI melanoma): > 100 µM
- TGI (KM12 colon): > 34.7 µM
- TGI (OVCAR-8 ovarian): > 100 µM
- TGI (SNB-19 CNS): > 100 µM
- TGI (NCI-H522 lung): > 100 µM
- TGI (COLO 205 colon): > 100 µM
- TGI (A498 renal): > 100 µM
- TGI (DMS 273 small cell lung): > 100 µM
- TGI (HCC-2998 colon): > 100 µM
- TGI (SK-OV-3 ovarian): > 100 µM
- TGI (HCT-116 colon): > 100 µM
- TGI (MALME-3M melanoma): > 100 µM
- TGI (UACC-257 melanoma): > 100 µM
- TGI (M19-MEL melanoma): > 100 µM
- TGI (OVCAR-5 ovarian): > 100 µM
- TGI (SK-MEL-28 melanoma): > 100 µM
- TGI (UACC-62 melanoma): > 100 µM
- TGI (SN12C renal): > 100 µM
- TGI (HOP-92 NSCLC): > 100 µM
- TGI (U251 CNS): > 100 µM
- TGI (HCT-15 colon): > 100 µM
- TGI (OVCAR-4 ovarian): > 100 µM
- TGI (SNB-78 CNS): > 100 µM
- TGI (MCF7 breast): > 100 µM
- TGI (IGROV1 ovarian): > 100 µM
- TGI (HL-60(TB) leukemia): > 100 µM
- TGI (SF-295 CNS): > 100 µM
- TGI (CCRF-CEM leukemia): > 100 µM

SMILES: Nc1nc(F)nc2c1ncn2C1OC(COP(=O)(O)O)C(O)C1O (stereo unspecified)
- TGI (SF-539 CNS): 859 µM
- TGI (HT29 colon): > 1250 µM
- TGI (SN12K1 renal): 277 µM
- TGI (NCI-H23 lung): 243 µM
- TGI (TK-10 renal): 773 µM
- TGI (NCI-H226 lung): 599 µM
- TGI (DMS 114 small cell lung): 626 µM
- TGI (RPMI-8226 leukemia): 855 µM
- TGI (EKVX NSCLC): 406 µM
- TGI (DLD-1 colon): > 1080 µM
- TGI (MDA-N): 723 µM
- TGI (SK-MEL-5 melanoma): 406 µM
- TGI (MDA-MB-435): 218 µM
- TGI (NCI/ADR-RES ovarian): 106 µM
- TGI (SW-620 colon): 675 µM
- TGI (XF 498 CNS): 152 µM
- TGI (RXF 393 renal): 413 µM
- TGI (HOP-18 NSCLC): 552 µM
- TGI (PC-3 prostate): 322 µM
- TGI (UO-31 renal): 76.4 µM
- TGI (KM20L2 colon): > 1250 µM
- TGI (A549 NSCLC): 511 µM
- TGI (DU-145 prostate): 124 µM
- TGI (P388 leukemia): 150 µM
- TGI (SNB-75 CNS): 713 µM
- TGI (OVCAR-3 ovarian): 546 µM
- TGI (MOLT-4 leukemia): 224 µM
- TGI (SF-268 CNS): 874 µM
- TGI (SK-MEL-2 melanoma): 151 µM
- TGI (P388/ADR leukemia): 160 µM
- TGI (HOP-62 NSCLC): 122 µM
- TGI (NCI-H460 lung): 616 µM
- TGI (T-47D breast): 489 µM
- TGI (CAKI-1 renal): > 68.4 µM
- TGI (K-562 leukemia): 1070 µM
- TGI (LOX IMVI melanoma): 334 µM
- TGI (KM12 colon): 900 µM
- TGI (OVCAR-8 ovarian): 196 µM
- TGI (SNB-19 CNS): 1000 µM
- TGI (M14 melanoma): 66.7 µM
- TGI (ACHN renal): 247 µM
- TGI (MDA-MB-231 breast): 772 µM
- TGI (NCI-H522 lung): 740 µM
- TGI (COLO 205 colon): 610 µM
- TGI (A498 renal): 694 µM
- TGI (HS 578T breast): 379 µM
- TGI (DMS 273 small cell lung): 821 µM
- TGI (HCC-2998 colon): 1170 µM
- TGI (SK-OV-3 ovarian): 292 µM
- TGI (HCT-116 colon): 325 µM
- TGI (MALME-3M melanoma): 254 µM
- TGI (UACC-257 melanoma): 813 µM
- TGI (M19-MEL melanoma): 877 µM
- TGI (OVCAR-5 ovarian): 617 µM
- TGI (SK-MEL-28 melanoma): 755 µM
- TGI (UACC-62 melanoma): 247 µM
- TGI (BT-549 breast): 302 µM
- TGI (SN12C renal): 145 µM
- TGI (HOP-92 NSCLC): 71.8 µM
- TGI (U251 CNS): > 1250 µM
- TGI (HCT-15 colon): 1080 µM
- TGI (OVCAR-4 ovarian): 987 µM
- TGI (SNB-78 CNS): 636 µM
- TGI (MCF7 breast): 717 µM
- TGI (SR leukemia): > 621 µM
- TGI (IGROV1 ovarian): 952 µM
- TGI (HL-60(TB) leukemia): 71.9 µM
- TGI (SF-295 CNS): 917 µM
- TGI (786-0 renal): 384 µM
- TGI (CCRF-CEM leukemia): 202 µM

From PubChem BioAssay (NCI)
